Target: T1, human GPR120 (hGPR120) (Homo sapiens, UniProt Q5NUL3)
T1 construct: expressed in transfected cells; doxycycline-inducible expression vector
T1 sequence (Q5NUL3 1-361): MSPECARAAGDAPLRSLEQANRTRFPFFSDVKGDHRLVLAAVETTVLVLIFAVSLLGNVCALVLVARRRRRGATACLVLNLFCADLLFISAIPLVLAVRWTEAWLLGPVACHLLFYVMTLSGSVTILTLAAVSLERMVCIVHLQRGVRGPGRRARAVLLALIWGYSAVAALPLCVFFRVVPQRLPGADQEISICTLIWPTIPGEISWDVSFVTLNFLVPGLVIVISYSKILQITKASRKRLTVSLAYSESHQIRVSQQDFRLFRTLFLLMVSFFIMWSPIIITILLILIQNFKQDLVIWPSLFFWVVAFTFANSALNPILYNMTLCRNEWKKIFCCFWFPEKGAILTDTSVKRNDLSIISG
Assay: ERK assay, screening for GPR120 ligands in cell line TXGPR120;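 as to ERK/GPR120 10 μM: signals normalized between DMSO and PMA controls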
Type: cell-based
Details: for selectivity for GPR120 in ERK assay (in words): GPR120 versus GPR40; for ERK activation for GPR120 (in words) / ERK/GPR120 10 μM / ERK/GPR120 100 μM: TXGPR120 cells; for ERK activation for GPR120 (in words): FIGS. 5-8; for ERK/GPR120 10 μM: ligand 10 μM; for ERK/GPR120 10 μM / ERK/GPR120 100 μM: class relative to LA; for ERK/GPR120 100 μM: ligand 100 μM

selectivity for GPR120 in ERK assay (in words) | ERK activation for GPR120 (in words) | ERK/GPR120 10 μM | ERK/GPR120 100 μM | Compound
selective for GRP120 | strongly activate ERK | +++ (+++ denotes a higher value than LA) | +++ (+++ denotes a higher value than LA) | O=C(O)CCCc1ccc(OCCN(c2ccccc2)c2nccs2)cc1 [NCG46]
selective for GRP120 | strongly activate ERK | +++ (+++ denotes a higher value than LA) | +++ (+++ denotes a higher value than LA) | CN(C)c1ccc(N(CCOc2ccc(CCCC(=O)O)cc2)c2ccccn2)cc1 [NCG54]

Reference: patent US8318781B2, “G-protein-conjugated receptor agonist” (Japan Science and Technology Agency, priority 2007, dated 2012)
